Reference: PMC9290002, “Development of Urea-Bond-Containing Michael Acceptors as Antitrypanosomal Agents Targeting Rhodesain” (ACS Medicinal Chemistry Letters, 2022)
Like-named read-outs stand apart in the source and are kept apart here.

What was measured:
BSF of T.b. = tested on: BSF of T.b.; design: method as in PMID 19620707; conditions: bloodstream form; Figure 1; cited from earlier work
rhodesain [1] = target: T1, rhodesain (Trypanosoma brucei rhodesiense, UniProt Q95PM0); conditions: cited from earlier work; for RD, k2nd: Figure 1
rhodesain [2] = target: T1, rhodesain; experiment: Rhodesain fluorogenic enzyme assay (Cbz-Phe-Arg-AMC); format: biochemical; conditions: for Ki: dissociation constant of noncovalent E·I complex, corrected to zero substrate concentration; for Rhodesain k2nd: k2nd = kinact/Ki
T. b. brucei [3] = experiment: Antitrypanosomal activity against cultured T. b. brucei (ATPlite assay); format: cell-based; conditions: Trypanosoma brucei, 24 h
Procedure: All the urea derivatives were tested against cultured T. b. brucei, which expresses rhodesain similarly to T. b. rhodesiense. […] The difference in terms of rhodesain inhibition and antitrypanosomal activity observed for 1 could be due to its poor cell membrane permeability. In fact, we assume that the presence of substituents on the phenyl ring at the P3 position, as well as the extension of the aromatic region, could influence the crossing of cell membranes.
EC50 values for the antitrypanosomal activity were determined using the ATPlite assay as previously

[4] = target: human cathepsin L (hCatL) (Homo sapiens, UniProt P07711); experiment: Enzyme assay towards hCatL; format: biochemical
T. b. brucei [5] = tested on: T. b. brucei; design: method as in PMID 31714776, PMID 28763614; conditions: Figure 1; cited from earlier work
[6] = target: T2, main protease (Mpro) of SARS-CoV-2 (Severe acute respiratory syndrome coronavirus 2, UniProt P0DTD1); experiment: Enzyme assay towards SARS-CoV-2 Mpro, preliminary screening; format: biochemical; conditions: preliminary screening at 100 μM; read-out: SARS-CoV-2 Mpro percentage of inhibition
T2 construct: the main protease (M^pro) of SARS-CoV-2
Procedure: In light of this, dilution assays characterizing the mode of inhibition were not performed. Since poor inhibition was shown by the Phe-containing analogues, the Leu derivatives 25 and 26 were not tested against SARS-CoV-2 M^pro.
In all the manipulations regarding the biological evaluation, no unexpected or unusually high safety hazards […]
Enzyme assays towards rhodesain.
The biological activity against rhodesain was evaluated by fluorescence-based assays and all tested compounds were diluted in DMSO. Rhodesain was recombinantly expressed as previously reported2,3 and Cbz-Phe-Arg-AMC (10 µM) was used as the fluorogenic substrate. In the preliminary screening at 0.1 µM, the substrate hydrolysis was determined over a period of 10 min at rt and fluorescence intensity was measured every 30 seconds, whereas the kinetic parameters after the dilutions were determined over a period of 30 min. The assay buffer (pH 5.5) contains 50 mM of sodium acetate, 5 mM of EDTA, 200 mM of NaCl, and 0.005% of Brij 35. Enzyme buffer (pH 5.5) contains 5 mM of DTT and the same chemicals used for assay buffer, with exception of Brij 35. Each independent assay was carried-out twice in duplicate using 96-well-plates in a final volume of 200 µL. Infinity 200 PRO microplate (Tecan, Männedorf, Switzerland) was employed as the fluorescence reader, and a 380 nm excitation filter and a 460 nm emission filter were used.
The first-order inactivation rate costants (k obs) were determined analyzing the progress curves by nonlinear regression analysis using the equation 1 shown in the Chart S1. 4 The obtained k obs values were fitted against the inhibito concentrations to the hyperbolic equation 2, providing the k inact and K iapp values. The latter were corrected to zero substrate concentration by the term (1+[S]/K m) in equation 3. The K m value used to correct K iapp values was determined to 0.9 μM. 5 K i and k inac values were calculated by nonlinear regression analyses using GraFit.6 The second-order rate constants k 2nd = k inact/K i were easily determined from the […]
Chart S1. Equations 1, 2, and 3.
Enzyme assays towards hCatL.
The biological evaluation towards hCatL was performed following the procedure reported in the literature.7 Enzyme assays towards SARS-CoV-2 Mpro.
The biological activity of novel Michael acceptors 1-9 against SARS-CoV-2 M pro was carried-out following the previously described protocol.8
Antitrypanosomal activity.
(1 picture or pasted object on this page, not shown here)

Chain of human cathepsin L (hCatL) (P07711 114-333): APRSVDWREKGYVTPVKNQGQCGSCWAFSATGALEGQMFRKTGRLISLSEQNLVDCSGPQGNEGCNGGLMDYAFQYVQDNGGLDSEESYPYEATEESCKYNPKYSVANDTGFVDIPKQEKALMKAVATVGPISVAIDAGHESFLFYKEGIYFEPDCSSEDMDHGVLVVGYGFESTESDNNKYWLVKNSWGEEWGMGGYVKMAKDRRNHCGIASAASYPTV
T1 sequence (Q95PM0 entry or part of it): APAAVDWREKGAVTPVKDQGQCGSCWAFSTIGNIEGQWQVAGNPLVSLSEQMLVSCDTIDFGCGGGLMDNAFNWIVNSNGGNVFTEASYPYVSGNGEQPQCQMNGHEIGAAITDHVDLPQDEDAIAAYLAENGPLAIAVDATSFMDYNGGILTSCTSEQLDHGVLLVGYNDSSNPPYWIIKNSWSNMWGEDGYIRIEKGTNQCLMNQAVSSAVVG

Row | Structure (SMILES) | BSF of T.b., ED50 (BSF of T.b.) [nM] | RD, k2nd (rhodesain [1]) [M⁻¹ s⁻¹] | Rhodesain k2nd (rhodesain [1]) | Ki (rhodesain [2]) [nM] | EC50 (T. b. brucei [3]) [nM] | Ki [4] [nM] | hCatL k2nd [4] | kinact [4] [s⁻¹] | EC50 (T. b. brucei [5]) [nM] | Ki (rhodesain [1]) [nM] | Rhodesain kinact (rhodesain [1]) [min^–1] | inhibition at 100 µM [6] [%] | Rhodesain k2nd (rhodesain [2])
1 | CN1CCN(C(=O)N[C@@H](Cc2ccccc2)C(=O)N[C@H](/C=C/S(=O)(=O)c2ccccc2)CCc2ccccc2)CC1 [K11777] | 900 | 150000 | 9000 ×10^3 M^–1 min^–1 |  |  |  |  |  |  |  |  |  | 
2 | CC(=O)/C=C/[C@H](CCc1ccccc1)NC(=O)[C@H](CC(C)C)NC(=O)Nc1ccc(Cl)cc1C [compound 26, (S)-2-(3-(4-chloro-2-methylphenyl)ureido)-4-methyl-N-((S,E)-6-oxo-1-phenylhept-4-en-3-yl)pentanamide] |  |  |  | 0.93 ± 0.52 | 1120 ± 50 | 0.07 ± 0.03 | 14240 ± 5410 x 103M-1 min-1 | 1.42e-05 |  |  |  |  | 
3 | CC(=O)/C=C/[C@H](CCc1ccccc1)NC(=O)[C@H](Cc1ccccc1)NC(=O)OCc1ccccc1 [RK-52] |  | 1.12e+06 |  |  |  |  |  |  | 2970 |  |  |  | 
4 | CC(C)C[C@H](NC(=O)[C@H]1O[C@@H]1C(=O)O)C(=O)NCCCCN=C(N)N [E64] |  |  | 261 ± 27 ×10^3 M^–1 min^–1 |  |  |  |  |  |  | 35 ± 5 | 0.0090 ± 0.0004 |  | 
5 | CC(=O)/C=C/[C@H](CCc1ccccc1)NC(=O)[C@H](Cc1ccccc1)NC(=O)Nc1ccc(Cl)cc1C [compound 7, (S)-2-(3-(4-Chloro-2-methylphenyl)ureido)-N-((S,E)-6-oxo-1-phenylhept-4-en-3-yl)-3-phenylpropanamide] |  |  |  | 0.51 ± 0.36 | 1650 ± 70 | 0.18 ± 0.03 | 3110 ± 160 x 103M-1 min-1 | 9.17e-06 |  |  |  | 33 to 66 | 
6 | CC(=O)/C=C/[C@H](CCc1ccccc1)NC(=O)[C@H](CC(C)C)NC(=O)Nc1ccc(C)cc1 [compound 25, (S)-4-Methyl-N-((S,E)-6-oxo-1-phenylhept-4-en-3-yl)-2-(3-(p-tolyl)ureido)pentanamide] |  |  |  | 0.42 ± 0.08 | 1540 ± 90 | 0.64 ± 0.02 | 2120 ± 6 x 103M-1 min-1 | 2.25e-05 |  |  |  |  | 
7 | CC(=O)/C=C/[C@H](CCc1ccccc1)NC(=O)[C@H](Cc1ccccc1)NC(=O)Nc1ccc(Cl)cc1 [compound 6, (S)-2-(3-(4-Chlorophenyl)ureido)-N-((S,E)-6-oxo-1-phenylhept-4-en-3-yl)-3-Phenylpropanamide] |  |  |  | 0.78 ± 0.13 | 1500 ± 240 | 3.11 ± 1.63 | 321 ± 152 x 103M-1 min-1 | 1.25e-05 |  |  |  | 33 to 66 | 2990 ± 300 ×10^3 M^–1 min^–1
8 | CC(=O)/C=C/[C@H](CCc1ccccc1)NC(=O)[C@H](Cc1ccccc1)NC(=O)Nc1cccc2ccccc12 [compound 9, (S)-2-(3-(Naphthalen-1-yl)ureido)-N-((S,E)-6-oxo-1-phenylhept-4-en-3-yl)-3-phenylpropanamide] |  |  |  | 2.51 ± 1.51 | 2280 ± 270 | 0.051 ± 0.001 | 12820 ± 1050 x 103M-1 min-1 | 1.08e-05 |  |  |  | 33 to 66 | 4170 ± 1360 ×10^3 M^–1 min^–1
9 | CC(=O)/C=C/[C@H](CCc1ccccc1)NC(=O)[C@H](Cc1ccccc1)NC(=O)Nc1ccc(F)cc1 [compound 4, (S)-2-(3-(4-Fluorophenyl)ureido)-N-((S,E)-6-oxo-1-phenylhept-4-en-3-yl)-3-phenylpropanamide] |  |  |  | 0.85 ± 0.07 | 1510 ± 80 | 0.1 ± 0.01 | 5880 ± 120 x 103M-1 min-1 | 1e-05 |  |  |  | 33 to 66 | 2480 ± 50 ×10^3 M^–1 min^–1
10 | CC(=O)/C=C/[C@H](CCc1ccccc1)NC(=O)[C@H](Cc1ccccc1)NC(=O)Nc1c(F)cccc1F [compound 5, (S)-2-(3-(2,6-Difluorophenyl)ureido)-N-((S,E)-6-oxo-1-phenylhept-4-en-3-yl)-3-phenylpropanamide] |  |  |  | 1.13 ± 0.26 | 3200 ± 280 | 2.14 ± 0.25 | 326 ± 8 x 103M-1 min-1 | 1.17e-05 |  |  |  | 33 to 66 | 2030 ± 230 ×10^3 M^–1 min^–1
11 | CC(=O)/C=C/[C@H](CCc1ccccc1)NC(=O)[C@H](Cc1ccccc1)NC(=O)Nc1ccc(C)cc1 [compound 3, (S)-N-((S,E)-6-Oxo-1-phenylhept-4-en-3-yl)-3-phenyl-2-(3-(p-tolyl)ureido)propanamide] |  |  |  | 0.51 ± 0.38 | 1390 ± 230 | 1.32 ± 0.25 | 360 ± 106 x 103M-1 min-1 | 7.5e-06 |  |  |  | 33 to 66 | 
12 | CC(=O)/C=C/[C@H](CCc1ccccc1)NC(=O)[C@H](Cc1ccccc1)NC(=O)c1ccc(F)cc1 [PS-1] |  | 1.47e+07 |  |  |  |  |  |  | 3600 |  |  |  | 
13 | CC(=O)/C=C/[C@H](CCc1ccccc1)NC(=O)[C@H](Cc1ccccc1)NC(=O)Nc1ccc(Cl)cc1C(F)(F)F [compound 8, (S)-2-(3-(4-Chloro-2-(trifluoromethyl)phenyl)ureido)-N-((S,E)-6-oxo-1-phenylhept-4-en-3-yl)-3-phenylpropanamide] |  |  |  | 1.04 ± 0.31 | 1280 ± 40 | 2.27 ± 0.43 | 256 ± 71 x 103M-1 min-1 | 9.17e-06 |  |  |  | 33 to 66 | 6050 ± 790 ×10^3 M^–1 min^–1
14 | COc1ccc(NC(=O)N[C@@H](Cc2ccccc2)C(=O)N[C@H](/C=C/C(C)=O)CCc2ccccc2)cc1 [compound 2, (S)-2-(3-(4-Methoxyphenyl)ureido)-N-((S,E)-6-oxo-1-phenylhept-4-en-3-yl)-3-phenylpropanamide] |  |  |  | 1.05 ± 0.33 | 2080 ± 220 | 81.9 ± 1.06 | 9 ± 1 x 103M-1 min-1 | 1.33e-05 |  |  |  | 33 to 66 | 5820 ± 490 ×10^3 M^–1 min^–1
15 | CC(=O)/C=C/[C@H](CCc1ccccc1)NC(=O)[C@H](Cc1ccccc1)NC(=O)Nc1ccccc1 [compound 1, (S)-N-((S,E)-6-Oxo-1-phenylhept-4-en-3-yl)-3-phenyl-2-(3-phenylureido)propenamide] |  |  |  | 0.15 ± 0.06 | 19800 ± 2670 | 0.11 ± 0.01 | 5920 ± 150 x 103M-1 min-1 | 1e-05 |  |  |  | 33 to 66 | 
